Experimental data from PMC4588179, “Antifungal Activity of 14-Helical β-Peptides against Planktonic Cells and Biofilms of Candida Species” (Pharmaceuticals, 2015).
Values after ≈ are worked out from the molar mass of the structure shown.

Key:
C. tropicalis 98-234 = assay: Planktonic antifungal susceptibility (modified CLSI, XTT end point); assay type: cell-based, Candida tropicalis; settings: 10^3 cells/mL, RPMI, 35 °C, 48 h, XTT (A490), <10% metabolic activity, at least two independent days, three replicates each
Description: (§1) C. albicans strains SC5314 and ATCC 90028 were purchased from ATCC. C. albicans K1, C. glabrata 5376, C. parapsilosis 5986 and C. tropicalis 98-234 are clinical isolates from invasive candidiasis and were generously donated by the Andes group (University of Wisconsin-Madison). K1 is fluconazole resistant. All strains were stored as a 50% glycerol stock at −80 °C and grown in a liquid YPD media. For planktonic susceptibility testing, cells were grown on agar plates at 30 °C for 24 h and 2–3 colonies were used for the cell inoculum. For spheroplast formation and biofilm susceptibility testing assays, cells were grown overnight in YPD at 30 °C. RPMI (with L-glutamine and phenol red buffered with 3-(N-morpholino) propanesulfonic acid and adjusted to pH 7.0) was the media used for all susceptibility tests. XTT solution for assessing metabolic activity was prepared at 0.5 g/L in PBS with 3 μM menadione in acetone and pH adjusted to 7.4.
(§2) The antifungal activities of the β-peptides against C. albicans, C. glabrata, C. parapsilosis, C. tropicalis cells were assayed in accordance to the guidelines for planktonic susceptibility testing provided by the Clinical and Laboratory Standards Institute, but with a modification to include a quantitative XTT cell metabolic activity end-point. […] After 48 h, the MICs were recorded visually as the first well that […] and by using an XTT metabolic assay. […]

C. glabrata 5376 = assay: as above; assay type: cell-based, Candida glabrata; settings: 10^3 cells/mL, RPMI, 35 °C, 48 h, XTT (A490), <10% metabolic activity, at least two independent days, three replicates each
Description: as §1, §2

[1] = test system: human red blood cells (hRBCs); assay: Hemolysis of human red blood cells; assay type: cell-based; settings: hRBCs, 2-fold dilutions in tris-buffered saline, an hour at 37 °C, absorbance 405 nm, relative to positive lysis control; average ± standard deviation of three independent experiments of duplicates each
Description: Table S1. Hemolysis of β-peptide 1-16, concentration of β-peptid e needed for 50% lysis of human red blood cells (hRBCs)
Peptide # Peptide Concentration at 50% Hemolysis a (HC50, µg/mL) […]
a Hemolysis assays were perfor med as previously indicated in Lee, M.R. et al., ACS Chem. Biol. (2014). Briefly, equal volumes of 2-fold dilutions of β-peptides in tris-buffered saline (TBS) were incubated with hRBCs for an hour at 37 °C. Supernatants were transferred to a new plate and absorbance was measured at 405 nm.
% hemolysis was calculated relative to positive lysis control and the concentration of peptide needed for 50% hemolysis was recorded as HC50 for that peptide. Values reported are average measurements from three independent experiments of duplicates each and the error denoted is the standard deviation. Concentration dependent hemolysis graphs can be found in Lee, M.R. et al., ACS Chem. Biol. (2014).

[2] = RP-HPLC retention time as measure of β-peptide hydrophobicity; assay type: physicochemical; settings: chromatographic, analytical RP-HPLC, C18 (Waters X-bridge, 4.6 mm × 250 mm), gradient 20%–80% CH3CN in water with 0.1% TFA over 5–35 min, 1 mL/minute, 0.5 to 1 mg/mL, 50 µL injected; mean ± standard deviation of triplicate measurements
From the text: β-peptides were produced by microwave-assisted Fmoc synthesis at 20−40 μmol scales and purified by RP-HPLC using a C18 column. MALDI mass spectrometry was used to validate the mass of each peptide as described previously. Retention times determined by C18 RP-HPLC were used as a measure of the relative hydrophobicity of the β-peptides (Table 1). This approach has been used previously by our group and others to assess the relative hydrophobicity of different peptide structures. Preliminary antifungal activity and mammalian toxicity evaluation were reported previously for β-peptides 1–16 as planktonic MIC against C. albicans and percent hemolysis at the MIC, respectively.
Hydrophobicity of 14-helical β-peptides was characterized by measuring retention times with an analytical RP-HPLC using a C18 column (Waters, X-bridge, column dimensions 4.6 mm × 250 mm, Milford, MA, USA). The β-peptide solutions (0.5 to 1 mg/mL, 50 µL) were injected into the HPLC at a flow rate of 1 mL/minute. Retention time was characterized in triplicate with a gradient of 20%–80% CH3CN in water containing 0.1% TFA over 5–35 min.

C. parapsilosis 5986 = assay: Planktonic antifungal susceptibility (modified CLSI, XTT end point); assay type: cell-based, Candida parapsilosis; settings: 10^3 cells/mL, RPMI, 35 °C, 48 h, XTT (A490), <10% metabolic activity, at least two independent days, three replicates each
Description: as §1, §2

CC(C)[C@@H](CC(=O)N[C@@H](CCCCN)CC(N)=O)NC(=O)[C@H]1CCCC[C@@H]1NC(=O)C[C@H](CCCCN)NC(=O)C[C@@H](NC(=O)[C@H]1CCCC[C@@H]1NC(=O)C[C@H](CCCCN)NC(=O)C[C@@H](NC(=O)[C@H]1CCCC[C@@H]1N)C(C)C)C(C)C [Peptide 4]
MIC, C. tropicalis (C. tropicalis 98-234): 4 µg/mL (≈ 3.45 µM) | MIC, C. glabrata (C. glabrata 5376): 32 µg/mL (≈ 27.6 µM) | Peptide Concentration at 50% Hemolysis (HC50) [1]: 161 ± 40 µg/mL | Hydrophobicity (HPLC Retention Time, min) [2]: 24.5 ± 0.2 min | MIC, C. parapsilosis (C. parapsilosis 5986): 16 µg/mL (≈ 13.8 µM)
